The values below are quoted from earlier work in patent US20230173296A1, “INTRACAVITARY PHOTODYNAMIC THERAPY” (Simphotek, Inc., priority 2020, published 2023).

Like-named read-outs stand apart in the source and are kept apart here.

For one data set, the system named is tumors in mice. The conditions noted are these: Qiu et. al., 2016.
A further data set deals with cancer in mice. The conditions noted are these: I-PDT, Shafirstein et. al., 2018.
The next data set relates to cancer in rabbits. The conditions noted are these: I-PDT, Shafirstein et. al., 2018.
The next data set relates to Human prostate. The following applies: Davidson et. al., 2009.

On to “benzoporphyrin derivative monoacid ring A [BPD]”, for which the “ε, PS extinction coefficient” value (690 nm) is recorded as “BPD (690 nm): 0.0783 cm^−1 μM^−1”.

With Photofrin, in the data set with tumors in mice, the “Threshold [^1O2]dose” value is >1.0 (Qiu et. al., 2016) mM. The “Threshold Light Dose Rate ϕT” value with cancer in mice was 8.4 (Shafirstein et. al., 2018) mW/cm^2; in the data set on cancer in rabbits, 16.5 (Shafirstein et. al., 2018) mW/cm^2. For the same compound, the “ε, PS extinction coefficient” value (630 nm) is “Photofrin (630 nm): 0.0035 cm^−1 μM^−1”.

For `CC[C@H]1c2cc3[n-]c4c(c3C)C(=O)[C@H](C(=O)OC)c4c3nc(cc4[n-]c(cc(n2)[C@@H]1C)c(C(C)=O)c4C)[C@@H](C)[C@@H]3CCC(=O)O.[Pd+2]` [TOOKAD], the “Threshold Light Dose” value in the data set with Human prostate is >23 (Davidson et. al., 2009) J/cm^2.

For the compound `Oc1cccc(-c2c3nc(c(-c4cccc(O)c4)c4ccc([nH]4)c(-c4cccc(O)c4)c4nc(c(-c5cccc(O)c5)c5ccc2[nH]5)CC4)C=C3)c1` [mTHPC], for the setting “650 nm”, the “ε, PS extinction coefficient” value is given as “mTHPC (650 nm): 0.048 cm^−1 μM^−1”.
